Results as given in US4079133A, “Safer method for dissolving gallstones combining hyodeoxycholic acid with chenodeoxycholic acids” (Warren-Teed Laboratories, Inc., priority 1976, dated 1978).

How the values were obtained:
[1] = design: species or system Long-Evans female rats; conditions: rat, in vivo
Description: Ten Long-Evans female rats were divided into two groups of five each. The rats were fed Purina® lab chow mixed with CDCA or dried hog bile. The dried hog bile contains approximately 25% CDCA and approximately 40% HDCA and was mixed in the feed at four times the concentration as CDCA so that each group of rats would receive approximately 600 mg. CDCA/kg./day. Following a 2 week treatment, the 10 rats plus five control rats were sacrificed and the blood collected for liver enzyme determinations.

[2] = Pharmacological studies employing rats: liver damage and safening effect (summary statements); type: in vivo
Description: The compositions are generally administered in a ratio of CDCA to HDCA in the range of from about 0.7 to about 2.0 and, preferably in the range of from about 0.8 to about 1.5. […] Hog bile generally contains from about 10 to about 50% CDCA and from about 10 to about 50% of HDCA in addition to other bile acids.

[3] = CDCA alone, or HDCA with CDCA relative to CDCA

C[C@H](CCC(=O)O)[C@H]1CC[C@H]2[C@@H]3[C@H](O)C[C@@H]4C[C@H](O)CC[C@]4(C)[C@H]3CC[C@]12C [CDCA, 3α, 7α-dihydroxy-5β-cholanic acid]
Bodyweights, Week 0 [1]: 284.6 gms | Bodyweights, Week 1 [1]: 256.4 gms | Feed Consumption, Week 0 [1]: 18.6 gms/da | Feed Consumption, Week 2 [1]: 11.7 gms/da | periportal hepatitis ([2]; CDCA alone): slight to mild periportal hepatitis | alkaline phosphatase (alk. phos.) in the blood [2, 3]: elevations | serum glutamic pyruvic transaminase (SGPT) in the blood [2, 3]: elevations | serum glutamic-oxaloacetic transaminase (SGOT) in the blood [2, 3]: elevations | nuclear enlargement of the hepatocytes ([2]; CDCA alone, slight to mild periportal hepatitis also seen): nuclear enlargement of the hepatocytes
